The subject of series [1] is HIV-1 6S. As for the experimental part: (§1) Our studies were carried out at the National Cancer Institute (National Cancer Institute, Bethesda, Maryland, USA). Antiviral activity was assessed using the XTT test with various concentrations of the compound and incubation of cells (CEM-SS, MT-2, MT-4) in the presence of serial dilutions of dispiropiperazine 2 (dissolved in dimethyl sulphoxide, DMSO) for 6 days at a temperature of 37°C and humidified atmosphere with 5% CO2, followed by addition of XTT reagents. The method is based on a spectrometric measurement of the level of formazan transformed by living cells from a water-soluble tetrazolium salt, XTT.
(§2) The following HIV strains were used: the reference HIV-1 IIIB strain; the AZT-sensitive HIV-1 6S, HIV- 1 RF strains; the drug-resistant HIV-1 N119 strains (resistant to nevirapine, Y181C mutation), HIV-1 DPS (resistant to diphenyl sulfone, Y181C mutation), and HIV-1 A-17 (resistant to nevirapine, K103N and Y181C mutations). We also used the HIV-2 ROD strain and simian immunodeficiency virus SIV MAC 251.

For series [2], the system named is HIV-1 A-17. As to conditions: for IC50: HIV-1 A-17 (resistant to nevirapine, K103N and Y181C), 6 days, XTT. How it is done: as §1, §2
On the technique in general: Formazan colour is commonly taken as a measure of viable cells.

Series [3] has as its system HIV-1 DPS. The conditions noted are these: MT-4 cells. As for the experimental part: as §1, §2
Series [4] relates to HIV-1 IIIB. The conditions noted are these: MT-4 cells. As for the experimental part: as §1, §2
For series [5], the system named is HIV-1 N119. As for the experimental part: as §1, §2
Series [6] concerns HIV-1 RF. The conditions noted are these: CEM-SS cells. As for the experimental part: as §1, §2
Series [7] relates to HIV-2 ROD. As to conditions: CEM-SS cells. How it is done:
as §1, §2

The test system of series [8] is SIV MAC 251. The conditions noted are these: SIV MAC 251, MT-4 cells. How it is done:
as §1, §2

In series [9] the test system is CEM-SS. As to conditions: read-out: CC50 (cytotoxic concentration), CEM-SS cells. How it is done: as §1
In series [10] the test system is MT-2. As to conditions: read-out: CC50 (cytotoxic concentration), MT-2 cells. How it is done:
as §1

For series [11], the system named is MT-4. As to conditions: read-out: CC50 (cytotoxic concentration), MT-4 cells. How it is done: as §1
Series [12] has as its system cellular HSPG. Further details: method as in earlier work. As to conditions: prevents virus binding; cited from earlier work.
The subject of series [13] is herpes viruses. As to conditions: cited from earlier work.
On the set-up of series [14]: method as in PMID 15341064. As to conditions: degradation accompanied by the formation of nitric oxide; cited from earlier work.

The values that follow come from PMC5406667, “Antiretroviral Activity Of a Novel Pyrimidyl-Di(Diazaspiroalkane) Derivative” (Acta Naturae, 2017).

Usually IC50 stands for the concentration that inhibits the measured activity by half.

Several values for one entry are separate records, joined by “and”; a condition that tells them apart may be missing. Equal entries are not always repeated. Where two headings read alike, the source gives them in different places.

On to “3,3’-(5-nitropyrimidine-4,6-diyl)bis-3,12-diaza-6,9-diazoniadispiro[ 5.2.5.2]hexadecane tetrachloride dihydrochloride [Compound 2]”, for which the IC50 is 1.37 µM and 1.4 µM in series [1]; 4.7 µM in series [2] (MT-2 cells); 33.7 µM in [2] (MT-4 cells); 1.17 µM and 1.2 µM in [3] (HIV-1 DPS (resistant to diphenyl sulfone, Y181C), 6 days, XTT); 5.7 µM in [4] (HIV-1 IIIB (reference strain), 6 days, XTT); 31.7 µM in [5] (HIV-1 N119 (resistant to nevirapine, Y181C), MT-4 cells, 6 days, XTT). The IC50 was 150 µM in series [6] (HIV-1 RF (AZT-sensitive), 6 days, XTT); 13.3 µM in series [7] (6 days, XTT); 6.3 µM in series [8] (6 days, XTT). For the same compound, the “TI (CC50/IC50), therapeutic index” value is given as 71.4 in series [1] (HIV-1 6S, MT-2 cells); 16.7 in series [2] (HIV-1 A-17, MT-2 cells); 5.9 in series [2] (HIV-1 A-17, MT-4 cells); 170.0 in series [3] (HIV-1 DPS); 35.0 in [4] (HIV-1 IIIB); 6.3 in series [5] (HIV-1 N119, MT-4 cells). Also, the “TI (CC50/IC50), therapeutic index” value in [6] (HIV-1 RF) amounted to 1.3; in [7], 15.0; in series [8], 31.5. In addition, the CC50 amounted to 197 µM in series [9] (HIV-1 RF experiment); 200 µM in series [9] (HIV-2 ROD experiment); 98.2 µM in series [10] (HIV-1 6S experiment); 79.1 µM in [10] (HIV-1 A-17 experiment); 200 µM in series [11] (HIV-1 A-17 experiment); 200 µM in series [11] (HIV-1 DPS experiment). The CC50 in [11] (HIV-1 IIIB experiment), in series [11] (HIV-1 N119 experiment) and in [11] (SIV MAC 251 experiment) was 200 µM in each case.
On to `[O-][n+]1onc2ncnc(N3CC[N+]4(CC3)CC[N+]3(CCN(c5ncnc6no[n+]([O-])c56)CC3)CC4)c21` [Compound 1, N,N’-(bis-1-oxido[1,2,5]oxadiazolo [3,4d]-nitropyrimidine-7-il)-3,12-diaza-6,9-diazonia(5,2,5,2)dispirohexane dichloride], for which, in series [12], the “Binding to cellular HSPG” value is “effective reversible binding to cellular HSPG”. For the same compound, the “Inhibition of replication in herpes viruses” value in series [13] was “inhibits replication in herpes viruses”. In series [14], the Metabolic stability result was “metabolic instability”.
